The target of one assay is HIV-1 RT wild-type enzyme (Human immunodeficiency virus type 1 group M subtype B (isolate HXB2) (HIV-1), UniProt P04585). As to the kind of experiment: HIV-1 reverse transcriptase inhibitory activity (RT polymerase assay). The format is biochemical.
Conditions: not given
As for the experimental part: Determination of HIV-1 Reverse Transcriptase Inhibitory Activity
The heterodimeric nucleic acid substrate used in the HIV-1 RT polymerase reactions was generated by annealing the DNA primer, biotinylated pD500 (Sigma Aldrich, USA, 5′-biotin-ttg aaa tga ctg cgg tac ggc-3′), SEQ ID NO. 1 to the nucleotide RNA template t500 (derived from hepatitis C virus [HCV] sequence, IBA, Germany, 5′-[…]-3′), SEQ ID NO 2). […] The mixture was then preincubated on an orbital shaker for 30 min at room temperature in microtiter plates (Costar 3365, Corning, USA). A polymerization reaction was initiated by the addition of RNA template/pD500 DNA primer hybrid (16.6 nM final of RNA/DNA hybrid) and dNTPs (2 μM dATP, dGTP, dCTP and 66.6 nM Ru-dUTP (Meso Scale Discovery, USA)). Plate was sealed and incubated for 5-10 min at room temperature on an orbital shaker. Plate was then incubated for 90 min at 37° C. and reactions quenched with 60 μl quenching buffer (50 mM EDTA, 0.7% BSA, 0.7% Tween-20, 0.017% sodium azide in PBS). The resulting solution was incubated at room temperature for an additional 5 min and then 50 μL was transferred to pre-blocked Avidin plates (L15AA, Meso Scale Discovery). Each well of Avidin plate was blocked for 1 h at room temperature with 100 μL 5% BSA in PBS. Blocking solution was removed by tapping vigorously on filter paper to remove all excess liquid. Reaction on pre-blocked avidin plate proceeded for 60 min at room temperature and then contents removed by tapping vigorously on filter paper to remove all excess liquid. After washing plate 3 times with 150 μL 1×PBS and blotting dry between cycles, 150 μL 1× Read Buffer T (4× Read Buffer T, Meso Scale Discovery) was added and incubated for 5 min at room temperature before counting on a Sector Imager […] (Meso Scale Discovery). Titration curves and IC50 values were calculated using a four parameter logisitc fit according to standard procedures. Briefly, % Inhibition=100×((sample raw value)−(mean value of the low control or 0% inhibition))/((mean value of wells representing 100% inhbition)−(mean value of 0% inhbition)). In this assay, low control wells contain DMSO (0% inhbition) and 100% inhibition wells contain 1 μM efavirenz.
Consider `N#Cc1cc(Cl)cc(Oc2c(C(F)(F)F)ncn(Cc3cc(CO)c(=O)[nH]n3)c2=O)c1` [Example 12, 3-chloro-5-((1-((5-(hydroxymethyl)-6-oxo-1,6-dihydropyridazin-3-yl)methyl)-6-oxo-4-(trifluoromethyl)-1,6-dihydropyrimidin-5-yl)oxy)benzonitrile], for which the IC50 is 32 nM.

Staying with this assay, now noted: HIV-1 RT wild-type enzyme 83 pM; RNA-dependent DNA polymerase activity; read-out: IC50.
In the case of `N#Cc1cc(Cl)cc(Oc2c(C(F)(F)F)ncn(Cc3n[nH]c(=O)c4cccnc34)c2=O)c1` [Example 1, 3-chloro-5-((6-oxo-1-((5-oxo-5,6-dihydropyrido[2,3-d]pyridazin-8-yl)methyl)-4-(trifluoromethyl)-1,6-dihydropyrimidin-5-yl)oxy)benzonitrile], the IC50 was 191 nM.
For the compound `N#Cc1cc(Cl)cc(Oc2c(C(F)(F)F)ncn(Cc3cnc(O)cn3)c2=O)c1` [Example 2, 3-chloro-5-((1-((5-hydroxypyrazin-2-yl)methyl)-6-oxo-4-(trifluoromethyl)-1,6-dihydropyrimidin-5-yl)oxy)benzonitrile], the IC50 was found to be 118 nM.
Same read-out and setting: with `Cn1cc(Cn2cnc(C(F)(F)F)c(Oc3cc(Cl)cc(C#N)c3)c2=O)ncc1=O` [Example 3, 3-chloro-5-((1-((4-methyl-5-oxo-4,5-dihydropyrazin-2-yl)methyl)-6-oxo-4-(trifluoromethyl)-1,6-dihydropyrimidin-5-yl)oxy)benzonitrile] the figure was 33 nM.
Still for that read-out and setting: with `N#Cc1cc(Cl)cc(Oc2c(C(F)(F)F)ncn(Cc3ncc[nH]c3=O)c2=O)c1` [Example 4, 3-chloro-5-((6-oxo-1-((3-oxo-3,4-dihydropyrazin-2-yl)methyl)-4-(trifluoromethyl)-1,6-dihydropyrimidin-5-yl)oxy)benzonitrile] the figure was 124 nM; with `N#Cc1cc(Cl)cc(Oc2c(C(F)(F)F)ncn(Cc3ccn[nH]c3=O)c2=O)c1` [Example 5, 3-chloro-5-((6-oxo-1-((3-oxo-2,3-dihydropyridazin-4-yl)methyl)-4-(trifluoromethyl)-1,6-dihydropyrimidin-5-yl)oxy)benzonitrile], 6 nM.
As for `[2H]C([2H])(c1ccc(=O)[nH]n1)n1cnc(C(F)(F)F)c(Oc2cc(Cl)cc(C#N)c2)c1=O` [Example 8], the IC50 worked out at 9 nM.
Still for that read-out and setting: as for `N#Cc1cc(Cl)cc(Oc2c(C(F)(F)F)ncn(Cc3cc(C4CC(F)(F)C4)c(=O)[nH]n3)c2=O)c1` [Example 9, 3-chloro-5-((1-((5-(3,3-difluorocyclobutyl)-6-oxo-1,6-dihydropyridazin-3-yl)methyl)-6-oxo-4-(trifluoromethyl)-1,6-dihydropyrimidin-5-yl)oxy)benzonitrile], the figure is 109 nM; as for `CC(C)c1cc(Cn2cnc(C(F)(F)F)c(Oc3cc(Cl)cc(C#N)c3)c2=O)n[nH]c1=O` [Example 10, 3-chloro-5-((1-((5-isopropyl-6-oxo-1,6-dihydropyridazin-3-yl)methyl)-6-oxo-4-(trifluoromethyl)-1,6-dihydropyrimidin-5-yl)oxy)benzonitrile], 7 nM; as for `CC(C)(O)c1cc(Cn2cnc(C(F)(F)F)c(Oc3cc(Cl)cc(C#N)c3)c2=O)n[nH]c1=O` [Example 11, 3-chloro-5-((1-((5-(2-hydroxypropan-2-yl)-6-oxo-1,6-dihydropyridazin-3-yl)methyl)-6-oxo-4-(trifluoromethyl)-1,6-dihydropyrimidin-5-yl)oxy)benzonitrile], 124 nM.
In the case of `Cc1ncn(Cc2ccc(=O)[nH]n2)c(=O)c1Oc1cc(Cl)cc(C#N)c1` [Example 13, 3-chloro-5-((4-methyl-6-oxo-1-((6-oxo-1,6-dihydropyridazin-3-yl)methyl)-1,6-dihydropyrimidin-5-yl)oxy)benzonitrile], the IC50 was 29 nM.
Still for that read-out and setting: with `CC(O)c1cc(Cn2cnc(C(F)(F)F)c(Oc3cc(Cl)cc(C#N)c3)c2=O)n[nH]c1=O` (stereo not drawn) [Example 14, 3-chloro-5-((1-((5-(1-hydroxyethyl)-6-oxo-1,6-dihydropyridazin-3-yl)methyl)-6-oxo-4-(trifluoromethyl)-1,6-dihydropyrimidin-5-yl)oxy)benzonitrile] the figure was 109 nM.

For the origin of these results see patent publication US9718819B2 (Merck Sharp & Dohme Corp., priority 2012, dated 2017).
